Assay results reported in ChEMBL document CHEMBL5291721, “A preclinical secondary pharmacology resource illuminates target-adverse drug reaction associations of marketed drugs” (Nat Commun, 2023).

Assays:
[1] = molecular target: T1, Amine oxidase [flavin-containing] A (Homo sapiens, UniProt P21397); format: functional
T1 sequence (P21397 whole entry): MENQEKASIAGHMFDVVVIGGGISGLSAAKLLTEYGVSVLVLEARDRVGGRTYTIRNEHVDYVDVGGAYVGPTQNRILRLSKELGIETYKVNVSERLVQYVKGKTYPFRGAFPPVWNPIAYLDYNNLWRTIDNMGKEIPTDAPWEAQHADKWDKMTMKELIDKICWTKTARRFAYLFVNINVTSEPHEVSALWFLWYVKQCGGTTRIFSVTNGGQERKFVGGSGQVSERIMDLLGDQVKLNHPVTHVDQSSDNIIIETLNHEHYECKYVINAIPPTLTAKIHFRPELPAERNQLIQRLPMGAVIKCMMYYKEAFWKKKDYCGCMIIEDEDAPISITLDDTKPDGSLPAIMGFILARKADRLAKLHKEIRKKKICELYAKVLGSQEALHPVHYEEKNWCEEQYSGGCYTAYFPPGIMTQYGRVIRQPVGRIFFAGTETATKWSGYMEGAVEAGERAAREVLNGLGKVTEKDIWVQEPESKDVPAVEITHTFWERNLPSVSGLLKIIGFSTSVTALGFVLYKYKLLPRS

[2] = molecular target: 3',5'-cyclic-AMP phosphodiesterase 4A (Homo sapiens, UniProt P27815); format: functional
[3] = molecular target: 5-hydroxytryptamine receptor 2B (Homo sapiens, UniProt P41595); format: functional, cell-based
[4] = molecular target: Sodium-dependent dopamine transporter (Homo sapiens, UniProt Q01959)
[5] = molecular target: Vasopressin V1a receptor (Homo sapiens, UniProt P37288)
[6] = molecular target: T2, Thromboxane A2 receptor (Homo sapiens, UniProt P21731); format: functional, cell-based
T2 sequence (P21731 whole entry): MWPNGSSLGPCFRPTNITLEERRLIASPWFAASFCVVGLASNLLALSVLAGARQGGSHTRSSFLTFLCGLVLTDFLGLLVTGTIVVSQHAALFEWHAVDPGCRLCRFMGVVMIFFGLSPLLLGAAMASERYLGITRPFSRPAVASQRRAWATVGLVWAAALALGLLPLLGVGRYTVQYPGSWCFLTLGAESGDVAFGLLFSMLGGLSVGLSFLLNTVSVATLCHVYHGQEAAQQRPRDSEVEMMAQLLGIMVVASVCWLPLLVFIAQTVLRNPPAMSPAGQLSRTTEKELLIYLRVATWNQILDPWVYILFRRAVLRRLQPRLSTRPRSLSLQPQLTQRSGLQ

[7] = molecular target: T3, Alpha-2A adrenergic receptor (Homo sapiens, UniProt P08913)
T3 sequence (P08913 whole entry): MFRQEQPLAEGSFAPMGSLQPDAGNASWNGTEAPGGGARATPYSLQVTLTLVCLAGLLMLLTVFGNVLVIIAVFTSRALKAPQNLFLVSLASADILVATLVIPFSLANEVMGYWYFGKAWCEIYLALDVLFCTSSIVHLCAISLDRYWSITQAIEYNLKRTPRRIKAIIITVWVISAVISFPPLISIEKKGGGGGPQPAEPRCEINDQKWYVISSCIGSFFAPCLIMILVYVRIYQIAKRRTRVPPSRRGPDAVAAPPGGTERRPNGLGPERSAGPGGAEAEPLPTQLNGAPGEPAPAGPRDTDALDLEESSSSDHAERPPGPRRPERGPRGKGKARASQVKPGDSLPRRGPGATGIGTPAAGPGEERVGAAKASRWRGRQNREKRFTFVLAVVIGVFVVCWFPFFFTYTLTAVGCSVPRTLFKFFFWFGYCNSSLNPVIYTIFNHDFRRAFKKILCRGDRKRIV

[8] = molecular target: T4, Muscarinic acetylcholine receptor M2 (Homo sapiens, UniProt P08172)
T4 sequence (P08172 whole entry): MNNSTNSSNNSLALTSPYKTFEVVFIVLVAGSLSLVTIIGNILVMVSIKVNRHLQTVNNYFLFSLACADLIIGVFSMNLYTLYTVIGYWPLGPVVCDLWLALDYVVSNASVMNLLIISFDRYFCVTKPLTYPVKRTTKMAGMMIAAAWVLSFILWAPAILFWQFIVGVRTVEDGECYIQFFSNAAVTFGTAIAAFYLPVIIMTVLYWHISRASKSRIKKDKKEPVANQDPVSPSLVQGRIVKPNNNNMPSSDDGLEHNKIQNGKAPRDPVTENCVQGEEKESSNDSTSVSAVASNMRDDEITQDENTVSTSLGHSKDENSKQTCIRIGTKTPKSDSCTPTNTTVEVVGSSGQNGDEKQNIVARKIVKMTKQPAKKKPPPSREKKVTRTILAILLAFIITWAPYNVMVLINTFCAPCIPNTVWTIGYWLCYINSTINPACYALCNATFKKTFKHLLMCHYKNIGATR

[9] = molecular target: Acetylcholinesterase (Homo sapiens, UniProt P22303); format: functional
[10] = molecular target: Histamine H3 receptor (Homo sapiens, UniProt Q9Y5N1)
[11] = molecular target: T2, Thromboxane A2 receptor; format: functional, cell-based; remark: listed apart in the source
[12] = molecular target: Prothrombin (Homo sapiens, UniProt P00734); format: functional
[13] = molecular target: T5, 5-hydroxytryptamine receptor 1A (Homo sapiens, UniProt P08908)
T5 sequence (P08908 whole entry): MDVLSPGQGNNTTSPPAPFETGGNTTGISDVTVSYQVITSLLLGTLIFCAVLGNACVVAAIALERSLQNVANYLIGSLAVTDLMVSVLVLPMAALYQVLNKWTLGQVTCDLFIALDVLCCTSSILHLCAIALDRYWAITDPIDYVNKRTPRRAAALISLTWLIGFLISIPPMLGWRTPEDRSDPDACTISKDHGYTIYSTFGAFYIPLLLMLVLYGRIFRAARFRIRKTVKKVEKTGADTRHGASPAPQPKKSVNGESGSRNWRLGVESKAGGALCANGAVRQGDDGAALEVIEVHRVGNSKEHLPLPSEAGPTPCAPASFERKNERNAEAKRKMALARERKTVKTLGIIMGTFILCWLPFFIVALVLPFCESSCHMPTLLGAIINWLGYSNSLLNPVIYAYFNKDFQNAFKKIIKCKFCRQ

[14] = molecular target: cGMP-inhibited 3',5'-cyclic phosphodiesterase 3A (Homo sapiens, UniProt Q14432); format: functional
[15] = molecular target: T4, Muscarinic acetylcholine receptor M2; format: functional, cell-based
[16] = molecular target: Voltage-gated inwardly rectifying potassium channel KCNH2 (Homo sapiens, UniProt Q12809); format: functional
Further: assay procedure not described here.

Chain of Vasopressin V1a receptor (P37288 whole entry): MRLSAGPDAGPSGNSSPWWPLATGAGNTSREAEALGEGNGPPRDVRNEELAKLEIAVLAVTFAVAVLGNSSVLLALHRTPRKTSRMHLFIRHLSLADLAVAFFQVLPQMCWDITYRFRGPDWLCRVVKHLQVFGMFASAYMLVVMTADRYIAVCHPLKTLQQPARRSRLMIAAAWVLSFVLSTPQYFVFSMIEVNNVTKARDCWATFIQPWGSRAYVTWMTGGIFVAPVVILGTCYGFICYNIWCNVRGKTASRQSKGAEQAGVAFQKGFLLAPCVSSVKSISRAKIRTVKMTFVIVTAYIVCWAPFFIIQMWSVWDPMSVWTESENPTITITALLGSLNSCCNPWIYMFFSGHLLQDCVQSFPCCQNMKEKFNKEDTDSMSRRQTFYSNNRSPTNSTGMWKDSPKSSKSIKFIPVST
Chain of Histamine H3 receptor (Q9Y5N1 whole entry): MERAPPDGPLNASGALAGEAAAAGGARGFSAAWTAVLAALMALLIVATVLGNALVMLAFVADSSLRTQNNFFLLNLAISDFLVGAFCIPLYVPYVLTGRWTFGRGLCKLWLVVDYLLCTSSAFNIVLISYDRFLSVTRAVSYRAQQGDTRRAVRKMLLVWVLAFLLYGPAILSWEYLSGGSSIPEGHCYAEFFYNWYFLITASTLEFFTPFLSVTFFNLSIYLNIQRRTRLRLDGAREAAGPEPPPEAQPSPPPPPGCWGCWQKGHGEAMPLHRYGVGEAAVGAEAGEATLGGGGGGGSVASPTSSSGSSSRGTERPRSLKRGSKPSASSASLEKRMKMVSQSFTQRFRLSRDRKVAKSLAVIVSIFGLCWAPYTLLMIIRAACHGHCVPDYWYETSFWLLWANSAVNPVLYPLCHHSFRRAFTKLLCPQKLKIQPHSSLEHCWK
Chain of cGMP-inhibited 3',5'-cyclic phosphodiesterase 3A (Q14432 whole entry): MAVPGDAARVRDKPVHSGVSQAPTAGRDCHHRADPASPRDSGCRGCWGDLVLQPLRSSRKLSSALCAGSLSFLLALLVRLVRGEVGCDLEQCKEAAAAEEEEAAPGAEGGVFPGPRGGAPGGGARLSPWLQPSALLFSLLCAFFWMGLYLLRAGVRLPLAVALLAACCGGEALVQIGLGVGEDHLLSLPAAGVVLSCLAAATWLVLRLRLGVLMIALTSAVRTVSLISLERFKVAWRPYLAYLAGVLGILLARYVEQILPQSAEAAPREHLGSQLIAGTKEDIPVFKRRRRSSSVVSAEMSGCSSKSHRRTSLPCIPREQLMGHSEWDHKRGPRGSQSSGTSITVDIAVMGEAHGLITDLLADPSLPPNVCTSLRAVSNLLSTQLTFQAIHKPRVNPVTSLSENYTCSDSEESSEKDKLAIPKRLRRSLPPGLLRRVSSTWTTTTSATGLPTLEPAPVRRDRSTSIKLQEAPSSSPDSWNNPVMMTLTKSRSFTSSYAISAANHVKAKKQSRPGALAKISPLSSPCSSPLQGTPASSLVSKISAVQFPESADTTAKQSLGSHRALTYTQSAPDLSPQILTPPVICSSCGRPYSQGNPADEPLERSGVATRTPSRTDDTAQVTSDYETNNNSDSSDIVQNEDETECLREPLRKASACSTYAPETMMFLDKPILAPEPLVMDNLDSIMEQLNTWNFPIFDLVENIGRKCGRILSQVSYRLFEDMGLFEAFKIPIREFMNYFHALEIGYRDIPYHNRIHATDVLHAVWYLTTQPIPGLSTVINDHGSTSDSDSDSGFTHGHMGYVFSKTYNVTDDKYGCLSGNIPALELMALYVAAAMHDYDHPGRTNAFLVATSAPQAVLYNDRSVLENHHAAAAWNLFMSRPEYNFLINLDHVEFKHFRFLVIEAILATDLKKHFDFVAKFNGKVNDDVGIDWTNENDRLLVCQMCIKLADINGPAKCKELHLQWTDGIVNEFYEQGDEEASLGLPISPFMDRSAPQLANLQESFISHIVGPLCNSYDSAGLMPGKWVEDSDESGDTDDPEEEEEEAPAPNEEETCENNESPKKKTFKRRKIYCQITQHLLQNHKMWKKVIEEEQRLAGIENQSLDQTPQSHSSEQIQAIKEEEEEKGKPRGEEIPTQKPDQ
Chain of Sodium-dependent dopamine transporter (Q01959 whole entry): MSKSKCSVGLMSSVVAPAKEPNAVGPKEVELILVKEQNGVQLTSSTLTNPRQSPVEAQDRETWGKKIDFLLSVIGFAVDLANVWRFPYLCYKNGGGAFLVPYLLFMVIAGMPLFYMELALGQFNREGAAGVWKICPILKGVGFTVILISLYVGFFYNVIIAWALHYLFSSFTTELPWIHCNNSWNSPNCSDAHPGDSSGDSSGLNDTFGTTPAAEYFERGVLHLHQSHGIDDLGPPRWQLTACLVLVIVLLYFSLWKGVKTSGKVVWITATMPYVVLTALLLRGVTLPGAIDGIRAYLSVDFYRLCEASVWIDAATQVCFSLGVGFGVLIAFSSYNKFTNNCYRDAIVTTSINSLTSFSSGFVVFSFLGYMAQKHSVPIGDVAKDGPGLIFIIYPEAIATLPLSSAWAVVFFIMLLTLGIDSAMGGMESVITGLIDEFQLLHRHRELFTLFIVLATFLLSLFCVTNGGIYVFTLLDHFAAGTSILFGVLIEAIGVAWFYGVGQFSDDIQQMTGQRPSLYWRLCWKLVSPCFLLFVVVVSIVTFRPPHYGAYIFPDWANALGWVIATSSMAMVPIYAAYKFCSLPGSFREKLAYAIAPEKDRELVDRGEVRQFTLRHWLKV
Chain of 3',5'-cyclic-AMP phosphodiesterase 4A (P27815 whole entry): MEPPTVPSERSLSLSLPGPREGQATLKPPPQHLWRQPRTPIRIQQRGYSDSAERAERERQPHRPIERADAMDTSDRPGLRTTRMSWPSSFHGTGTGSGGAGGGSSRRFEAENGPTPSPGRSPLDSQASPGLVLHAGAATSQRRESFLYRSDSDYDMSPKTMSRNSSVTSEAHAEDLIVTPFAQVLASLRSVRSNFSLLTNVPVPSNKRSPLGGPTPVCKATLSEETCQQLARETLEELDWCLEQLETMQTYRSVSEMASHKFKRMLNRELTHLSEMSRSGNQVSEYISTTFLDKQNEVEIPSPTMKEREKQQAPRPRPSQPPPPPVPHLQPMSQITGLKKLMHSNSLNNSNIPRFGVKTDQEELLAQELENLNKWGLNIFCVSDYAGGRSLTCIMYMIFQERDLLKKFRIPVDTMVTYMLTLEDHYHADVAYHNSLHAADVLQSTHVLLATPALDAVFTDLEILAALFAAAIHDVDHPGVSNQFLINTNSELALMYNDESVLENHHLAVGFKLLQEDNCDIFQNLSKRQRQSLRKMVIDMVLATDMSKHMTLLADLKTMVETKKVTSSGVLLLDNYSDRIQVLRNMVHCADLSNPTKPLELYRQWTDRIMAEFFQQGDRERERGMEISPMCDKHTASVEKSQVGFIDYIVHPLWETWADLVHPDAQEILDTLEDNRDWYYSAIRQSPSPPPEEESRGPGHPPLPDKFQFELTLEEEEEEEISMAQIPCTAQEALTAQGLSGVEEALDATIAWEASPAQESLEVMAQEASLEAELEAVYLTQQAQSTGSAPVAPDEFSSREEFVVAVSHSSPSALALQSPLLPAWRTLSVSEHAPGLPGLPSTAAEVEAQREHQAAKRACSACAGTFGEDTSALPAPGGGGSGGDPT
Chain of Voltage-gated inwardly rectifying potassium channel KCNH2 (Q12809 whole entry): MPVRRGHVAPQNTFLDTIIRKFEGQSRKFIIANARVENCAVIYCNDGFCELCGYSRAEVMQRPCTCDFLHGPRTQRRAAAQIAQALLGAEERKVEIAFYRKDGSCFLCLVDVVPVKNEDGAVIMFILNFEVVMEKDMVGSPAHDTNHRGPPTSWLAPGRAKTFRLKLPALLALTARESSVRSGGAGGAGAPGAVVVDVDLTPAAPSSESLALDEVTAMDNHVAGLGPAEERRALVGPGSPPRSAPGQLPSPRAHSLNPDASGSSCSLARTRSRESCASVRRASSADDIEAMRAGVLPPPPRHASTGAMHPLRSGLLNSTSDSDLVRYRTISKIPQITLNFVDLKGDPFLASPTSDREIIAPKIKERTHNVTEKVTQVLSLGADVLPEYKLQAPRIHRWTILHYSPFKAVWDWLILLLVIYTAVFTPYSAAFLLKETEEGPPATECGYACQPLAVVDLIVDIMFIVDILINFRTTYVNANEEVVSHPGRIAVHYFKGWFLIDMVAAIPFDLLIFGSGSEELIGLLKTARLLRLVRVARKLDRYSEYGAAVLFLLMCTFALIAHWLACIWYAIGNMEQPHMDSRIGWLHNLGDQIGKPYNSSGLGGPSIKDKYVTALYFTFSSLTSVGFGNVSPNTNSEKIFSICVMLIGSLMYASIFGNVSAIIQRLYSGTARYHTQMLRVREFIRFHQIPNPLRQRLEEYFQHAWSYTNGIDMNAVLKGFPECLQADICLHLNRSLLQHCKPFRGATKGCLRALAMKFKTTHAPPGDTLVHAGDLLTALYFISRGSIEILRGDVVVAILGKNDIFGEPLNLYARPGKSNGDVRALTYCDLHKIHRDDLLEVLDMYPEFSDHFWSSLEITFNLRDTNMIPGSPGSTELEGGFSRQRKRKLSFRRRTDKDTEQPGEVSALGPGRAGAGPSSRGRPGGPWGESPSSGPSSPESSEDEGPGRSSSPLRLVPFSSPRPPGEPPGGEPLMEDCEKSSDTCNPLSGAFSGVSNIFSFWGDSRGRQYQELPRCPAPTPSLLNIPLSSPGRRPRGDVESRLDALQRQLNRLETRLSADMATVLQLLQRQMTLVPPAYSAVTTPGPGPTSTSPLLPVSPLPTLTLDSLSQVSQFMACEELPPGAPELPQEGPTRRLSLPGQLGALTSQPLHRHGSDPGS

SMILES | AC50 [1] [µM] | AC50 [2] [µM] | AC50 [3] [µM] | AC50 [4] [µM] | AC50 [5] [µM] | AC50 [6] [µM] | AC50 [7] [µM] | AC50 [8] [µM] | AC50 [9] [µM] | AC50 [10] [µM] | AC50 [11] [µM] | AC50 [12] [µM] | AC50 [13] [µM] | AC50 [14] [µM] | AC50 [15] [µM] | AC50 [16] [µM]
O=C(/C=C/c1cccc(S(=O)(=O)Nc2ccccc2)c1)NO [BELINOSTAT] | > 30 | 23.7 | > 30 | > 30 | > 10 | > 30 | > 30 | > 30 | > 30 | > 30 | > 30 | > 30 | > 30 | > 30 |  | 
CC(O)(CS(=O)(=O)c1ccc(F)cc1)C(=O)Nc1ccc(C#N)c(C(F)(F)F)c1 (configuration not stated) [BICALUTAMIDE] | > 30 | > 30 | > 30 | > 30 | > 30 | > 3 | > 30 | > 30 | > 30 | > 30 | > 10 | > 30 | > 30 | > 30 | > 10 | > 30
NC[C@H]1CC[C@H](C(=O)Oc2ccc(CCC(=O)O)cc2)CC1 [CETRAXATE] | > 30 | > 30 | > 30 | > 30 |  | > 30 | > 30 | > 30 | > 30 | > 30 | > 30 | 4.35 | > 30 | > 30 | > 30 | > 30
CC(=O)O[C@]1(C(C)=O)CC[C@H]2[C@@H]3C=C(Cl)C4=CC(=O)[C@@H]5C[C@@H]5[C@]4(C)[C@H]3CC[C@@]21C [CYPROTERONE ACETATE] | > 30 | > 30 | > 30 | > 30 | > 10 | > 3 | > 30 | 9.17 | > 30 | > 30 | > 30 | > 30 | > 30 | > 30 |  | > 30
O=S1(=O)CCN(CN2CCS(=O)(=O)NC2)CN1 [TAUROLIDINE] | > 30 | > 30 | > 30 | > 30 |  | > 30 | > 30 | > 30 | > 30 | > 30 | > 30 | > 30 | > 30 | > 30 | > 30 | > 30
CCCSc1nc(N[C@@H]2C[C@H]2c2ccc(F)c(F)c2)c2nnn([C@@H]3C[C@H](OCCO)[C@@H](O)[C@H]3O)c2n1 [TICAGRELOR] | > 30 | 21.3 | > 30 | 0.425 |  | 6.38 | > 30 | > 30 | > 30 | > 30 | > 30 | > 30 | > 30 | 17 |  | 27
c1ccc2c(SC3=NCCN3)c[nH]c2c1 [TINAZOLINE] | 15.9 | > 30 | > 30 | > 30 |  | > 30 | 0.0098 | > 30 | > 30 | > 30 | > 30 | > 30 | 0.19 | > 30 |  | > 30
Cc1ccc(C(=O)C(C)CN2CCCCC2)cc1 (configuration not stated) [TOLPERISONE] | > 30 | > 30 | > 30 | > 30 |  | > 30 | > 30 | 3.7 | > 30 | 4.74 | > 30 | > 30 | > 30 | > 30 |  | > 30
